Reference: ChEMBL document CHEMBL1141395, “2-(S)-phenethylaminothiazolones as potent, orally efficacious inhibitors of 11beta-hydroxysteriod dehydrogenase type 1” (J Med Chem, 2007)

Key:
[1] = molecular target: T1, 11-beta-hydroxysteroid dehydrogenase 1 (Homo sapiens, UniProt P28845)
Description: Inhibition of human 11beta-HSD1 over expressed in CHO cells by whole cell assay

[2] = molecular target: T1, 11-beta-hydroxysteroid dehydrogenase 1; remark: listed apart in the source
Description: Displacement of [3H]cortisone from human recombinant 11beta-HSD1 by SPA

[3] = Clearance in Sprague-Dawley rat at 2 mg/kg, iv; type: ADME, organism-based; parameters: dose 2 mg/kg, route intravenous; settings: in vivo
[4] = molecular target: T2, Glucocorticoid receptor (Homo sapiens, UniProt P04150); assay: Inhibition of glucocorticoid receptor
T2 sequence (P04150 whole entry): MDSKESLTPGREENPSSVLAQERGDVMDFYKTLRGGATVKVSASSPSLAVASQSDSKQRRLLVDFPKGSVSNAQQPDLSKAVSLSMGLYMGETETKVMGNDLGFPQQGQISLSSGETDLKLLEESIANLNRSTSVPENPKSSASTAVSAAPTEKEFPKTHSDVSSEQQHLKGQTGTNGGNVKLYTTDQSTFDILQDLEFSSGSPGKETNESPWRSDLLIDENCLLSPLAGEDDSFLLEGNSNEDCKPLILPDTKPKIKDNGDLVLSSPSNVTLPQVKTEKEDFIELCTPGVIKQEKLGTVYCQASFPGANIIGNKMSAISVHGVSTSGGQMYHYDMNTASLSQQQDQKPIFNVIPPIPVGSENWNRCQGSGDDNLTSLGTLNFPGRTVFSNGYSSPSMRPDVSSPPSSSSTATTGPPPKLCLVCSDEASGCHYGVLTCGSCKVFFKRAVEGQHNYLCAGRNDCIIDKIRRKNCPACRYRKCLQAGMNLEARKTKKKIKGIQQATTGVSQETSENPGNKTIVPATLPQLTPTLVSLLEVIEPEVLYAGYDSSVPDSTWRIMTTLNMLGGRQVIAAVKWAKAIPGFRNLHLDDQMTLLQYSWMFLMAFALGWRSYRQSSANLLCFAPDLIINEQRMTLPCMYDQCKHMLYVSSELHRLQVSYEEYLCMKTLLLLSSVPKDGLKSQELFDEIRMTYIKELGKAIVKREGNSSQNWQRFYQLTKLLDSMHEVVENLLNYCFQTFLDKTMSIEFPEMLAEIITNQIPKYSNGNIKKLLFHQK

[5] = molecular target: 11-beta-hydroxysteroid dehydrogenase type 2 (Homo sapiens, UniProt P80365); assay: Inhibition of human 11beta-HSD2
[6] = Volume of distribution in Sprague-Dawley rat at 2 mg/kg, iv; type: ADME, organism-based; parameters: dose 2 mg/kg, route intravenous; settings: in vivo, read-out: Vss
[7] = Drug level in adipose in C57/B16 mouse at 30 mg/kg, po after 6 hrs; type: ADME, organism-based; parameters: dose 30 mg/kg, route oral; settings: read-out: Drug uptake
[8] = Oral bioavailability in Sprague-Dawley rat at 10 mg/kg, po; type: ADME, organism-based; settings: in vivo
[9] = Drug level in C57/B16 mouse plasma at 30 mg/kg, po after 6 hrs; type: ADME, organism-based; parameters: dose 30 mg/kg, route oral
[10] = Drug level in C57/B16 mouse plasma at 30 mg/kg, po after 2 hrs; type: ADME, organism-based; parameters: dose 30 mg/kg, route oral
[11] = Drug level in adipose in C57/B16 mouse at 30 mg/kg, po after 2 hrs; type: ADME, organism-based; parameters: dose 30 mg/kg, route oral; settings: read-out: Drug uptake
[12] = molecular target: 11-beta-hydroxysteroid dehydrogenase 1 (Mus musculus) (UniProt P50172); assay: Reduction of 11beta-HSD1 activity in C57/B16 mouse at 30 mg/kg, po after 2 hrs; type: organism-based; parameters: dose 30 mg/kg; scale not given: the % may be the effect or the level left
[13] = Cmax in Sprague-Dawley rat at 10 mg/kg, po; type: ADME, organism-based; parameters: dose 10 mg/kg, route oral; settings: in vivo
[14] = molecular target: 11-beta-hydroxysteroid dehydrogenase 1 (Mus musculus, UniProt P50172); assay: Inhibition of murine 11beta-HSD1
[15] = molecular target: 11-beta-hydroxysteroid dehydrogenase 1 (Mus musculus) (UniProt P50172); assay: Reduction of 11beta-HSD1 activity in C57/B16 mouse at 30 mg/kg, po after 6 hrs; type: organism-based; parameters: dose 30 mg/kg; scale not given: the % may be the effect or the level left

T1 sequence (P28845 whole entry): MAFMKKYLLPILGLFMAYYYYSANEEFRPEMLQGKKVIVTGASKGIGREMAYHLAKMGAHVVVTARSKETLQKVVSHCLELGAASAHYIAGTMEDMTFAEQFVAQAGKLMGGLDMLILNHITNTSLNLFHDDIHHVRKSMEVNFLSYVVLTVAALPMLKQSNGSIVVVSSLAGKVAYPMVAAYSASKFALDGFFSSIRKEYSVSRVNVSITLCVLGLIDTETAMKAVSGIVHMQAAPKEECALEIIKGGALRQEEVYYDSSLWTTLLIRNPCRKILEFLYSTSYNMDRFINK
Chain of 11-beta-hydroxysteroid dehydrogenase 1 (Mus musculus) (P50172 whole entry, looked up): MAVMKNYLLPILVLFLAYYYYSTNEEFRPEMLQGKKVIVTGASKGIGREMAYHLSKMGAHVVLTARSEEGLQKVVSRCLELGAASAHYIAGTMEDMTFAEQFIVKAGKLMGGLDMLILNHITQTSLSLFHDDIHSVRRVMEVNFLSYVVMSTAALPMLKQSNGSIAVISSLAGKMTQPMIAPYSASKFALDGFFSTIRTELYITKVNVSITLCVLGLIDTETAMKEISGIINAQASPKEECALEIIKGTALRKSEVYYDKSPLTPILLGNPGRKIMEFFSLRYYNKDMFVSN
Chain of 11-beta-hydroxysteroid dehydrogenase 1 (Mus musculus, UniProt P50172) (P50172 whole entry): as the sequence (P50172 whole entry, looked up) above
Chain of 11-beta-hydroxysteroid dehydrogenase type 2 (P80365 whole entry, looked up): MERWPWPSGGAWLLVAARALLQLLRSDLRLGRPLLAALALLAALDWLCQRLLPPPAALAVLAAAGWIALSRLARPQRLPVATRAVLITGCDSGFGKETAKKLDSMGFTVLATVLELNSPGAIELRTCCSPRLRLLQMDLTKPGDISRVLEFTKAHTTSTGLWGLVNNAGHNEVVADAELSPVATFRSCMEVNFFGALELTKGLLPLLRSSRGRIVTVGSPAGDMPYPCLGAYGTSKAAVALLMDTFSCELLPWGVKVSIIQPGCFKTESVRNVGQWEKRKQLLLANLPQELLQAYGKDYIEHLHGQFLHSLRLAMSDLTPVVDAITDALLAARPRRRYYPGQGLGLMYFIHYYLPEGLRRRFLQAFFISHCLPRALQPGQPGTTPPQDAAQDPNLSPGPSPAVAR

Row | IC50 [1] | Ki [2] | clearance [3] | IC50 [4] | IC50 [5] | Vd [6] | concentration at 6 h [7] | bioavailability [8] | concentration at 6 h [9] | concentration at 2 h [10] | concentration at 2 h [11] | Activity [12] | Cmax [13] | Ki [14] | Activity [15] | Compound
1 | 53 nM | 65 nM | – | – | – | – | – | – | – | – | – | – | – | – | – | CC(C)C1(C)SC(NCc2ccccc2)=NC1=O (configuration not stated)
2 | 33 nM | 22 nM | 3.13 mL/min/kg | > 50000 nM | > 10000 nM | 1.2 L/kg | 113 µM | 75% | 35 µM | 55 µM | 234 µM | 88% | 4630 ng/mL | 130 nM | 91% | C[C@H](NC1=NC(=O)[C@@](C)(C(F)(F)F)S1)c1ccccc1F
3 | – | – | 42.8 mL/min/kg | – | – | 5.73 L/kg | – | 20% | – | – | – | – | 176 ng/mL | – | – | CC(C)[C@]1(C)SC(N[C@@H](C)c2ccccc2F)=NC1=O
4 | 96 nM | 48 nM | 9.6 mL/min/kg | – | – | 1.66 L/kg | – | 50% | – | – | – | – | 1230 ng/mL | – | – | C[C@H](NC1=NC(=O)[C@](C)(C(F)(F)F)S1)c1ccccc1F
5 | 56 nM | 20 nM | 8.35 mL/min/kg | – | – | 2.98 L/kg | – | 55% | – | – | – | – | 1040 ng/mL | – | – | C[C@H](NC1=NC(=O)C(C)(C(F)(F)F)S1)c1ccccc1F (some centres not stated)
6 | – | – | 14.8 mL/min/kg | – | – | 1.66 L/kg | – | 47% | – | – | – | – | 1080 ng/mL | – | – | C[C@H](NC1=NC(=O)C(C)(C(C)(C)F)S1)c1ccccc1F (some centres not stated)
